Measured values from US7531320B2, “Modulation of β-catenin/TCF-activated transcription” (priority 2003, dated 2009).

How the values were obtained:
Format in all cases: cell-based, human
[1] = test system: nuclear β-catenin in HCT116 cells; experiment: β-catenin immunofluorescence localization in HCT116 cells; settings: 25 μM, 24 hours, to cytoplasmic membrane
Method: FIG. 4. COMPOUND 1 decreases nuclear β-catenin • A. β-catenin immunofluorescence microscopy. Log phase SW480 (left) and HCT116 (right) cells were fixed and stained with either anti-β-catenin red (upper panel, A) or anti-CBP (upper panel, B) green. The center panel represents the superimposed β-catenin and CBP in SW480 (left) and HCT116 (right) cells. […] 25 μg of total protein from the cell extracts of SW480 cells with or without 24 hr treatment of COMPOUND1 was used for detection of cytosolic and nuclear β-catenin.
Immunofluorescence was used to examine the localization of CBP and β-catenin in SW480 and HCT116 cells treated with COMPOUND 1 (25 μM) or control (0.5% DMSO). Cells at log phase were seeded and after 24 hours, the cells were treated with COMPOUND 1 or control. 24 hours post treatment, cells were fixed. The coverslips were incubated with antibodies raised against CBP (A-22) (Santa Cruz Biotechnology) and β-catenin (Transduction Laboratories), respectively. The slides were examined using a Nikon PCM 2000 Laser Scanning Confocal Microscope after the secondary antibodies conjugated to either FITC or TRITC (Jackson ImmunoResearch, Westgrove, Pa.) were applied.

[2] = test system: axin2; experiment: Real Time RT-PCR in SW480 cells, axin2; settings: 25 μM; for ΔCT axin2: relative to β-actin
Method: (§1) The RNeasy Midi Kit (Qiagen) was used for RNA extraction and Real Time RT-PCR was performed according to the protocol provided with the SYBR Green PCR Master Mix Kit (Perkin Elmer Biosystems, Shelton, Conn.). The primers used for cyclin D1, axin2, hnkd, c-myc, c-jun, and fra-1 amplifications were: cyclin D1 forward primer:5′-[…]-CCTGCTG-3′ (SEQ ID NO: 32) reverse primer: 5′-[…]-3′ (SEQ ID NO: 33) leading to a product size of approximately 300 bp; axin2 forward primer: 5′-[…] GGAAA-CT-3′ (SEQ ID NO: 34) and reverse primer: 5′-[…]-GAGA-3′ (SEQ ID NO: 35); hnkd forward primer: 5′-[…] TTGCGT-3′ (SEQ ID NO: 36) and the reverse primer: 5′-[…] ACGT-3′ (SEQ ID NO: 37); c-myc forward primer: 5′-GAA-[…] CTGC-3′ (SEQ ID NO: 38) and reverse primer: 5′-[…]-G-3′ (SEQ ID NO: 39); c-jun forward primer: 5′-[…]-3′ (SEQ ID NO: 40) and reverse primer: 5′-[…]-3′ (SEQ ID NO: 41); fra-1 forward primer: 5′-ACC-[…]-[…]-3′ (SEQ ID NO: 42) and reverse primer: 5′-[…]-TT-3′ (SEQ ID NO: 43). β-actin was used for normalization. […]
(§2) 1 μg of mRNA, for each time point, was subjected to Real Time RT-PCR. Expression level of endogenous cyclin D1, c-myc, fibronectin, hnkd, axin2, c-jun, and BMP-4 were measured relative to β-actin. Quantitation of The ΔCycle of Threshold (CT) values was determined by subtracting the average values of each set by the corresponding average values obtained for β-actin. […]
(§3) The cyclin D1 gene is inappropriately expressed in many different tumor types, and is known to be a direct target of the Wnt/β-catenin pathway (Shtutman et al., “The cyclin D1 gene is a target of the beta-catenin/LEF-1 pathway,” Proc. Natl. Acad. Sci. USA 96:5522-27 (1999); Tetsu et al., “Beta-catenin regulates expression of cyclin D1 in colon carcinoma cells,” Nature 398:422-26 (1999)). […] Expression level of endogenous cyclin D1, c-myc, fibronectin, hnkd, axin2, c-jun, and BMP-4 were measured relative to β-actin. Quantitation of The ΔCycle of Threshold (CT) values was determined by subtracting the average values of each set by the corresponding average values obtained for β-actin. […]

[3] = test system: c-jun; experiment: Real Time RT-PCR in SW480 cells, c-jun; settings: 25 μM; for ΔCT c-jun: relative to β-actin
Method: as §1, §2, §3

[4] = test system: SW480 cells; experiment: Soft agar colony formation assay with SW480 cells

`O=C1C(Cc2ccc(O)cc2)N2C(=O)CCN(C(=O)NCc3ccccc3)C2CN1Cc1cccc2ccccc12` (stereo not drawn) [COMPOUND 1] was tested, and the “Subcellular distribution of β-catenin” value [1] was “redistribution of β-catenin”, the “mRNA axin2 (direction)” value [2] was “↓” and the “ΔCT axin2” value ([2]; 4 hours) was 0.3. The “ΔCT axin2” value ([2]; 8 hours) was 0.8, the “mRNA c-jun (direction)” value [3] was “↑” and the ΔCT c-jun ([3]; 4 hours) was 0. For the same molecule, the ΔCT c-jun ([3]; 24 hours) was −2.9, the “Number of colonies formed in soft agar” value ([4]; 0.25-5 μM) was “dose dependent decrease” and the IC50 ([4]; 5000 cells/well, colonies counted after 8 days) was 870 ± 110 nM.
